Measured values from ChEMBL document CHEMBL1201862, “PubChem BioAssay data set” (2004).
Calls of active or inactive are those of the source. For most assays here, no stated cut-off is given here; in the data, actives have a measured IC50 and inactives only a lower limit.

Columns and labels:
[1] = biological target: T1, Sentrin-specific protease 8 (Homo sapiens, UniProt Q96LD8); assay: SENP8 protease inhibitors, SAR follow-up, biochemical, luminescence (AID 504501); type: functional
T1 sequence (Q96LD8 whole entry): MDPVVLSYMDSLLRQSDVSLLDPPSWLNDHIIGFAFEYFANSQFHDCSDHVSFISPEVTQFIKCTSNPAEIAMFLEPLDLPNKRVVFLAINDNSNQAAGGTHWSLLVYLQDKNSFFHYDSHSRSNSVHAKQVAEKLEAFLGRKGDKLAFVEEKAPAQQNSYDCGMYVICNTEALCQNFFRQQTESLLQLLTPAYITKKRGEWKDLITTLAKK

Caspase-3 [2] = biological target: T2, Caspase-3 (Homo sapiens, UniProt P42574); assay: caspase-3 inhibitors as off-family protease, SAR follow-up, selectivity assay for SENP protease inhibitor project, biochemical, luminescence, set 2 (AID 588599); type: functional
T2 sequence (P42574 whole entry): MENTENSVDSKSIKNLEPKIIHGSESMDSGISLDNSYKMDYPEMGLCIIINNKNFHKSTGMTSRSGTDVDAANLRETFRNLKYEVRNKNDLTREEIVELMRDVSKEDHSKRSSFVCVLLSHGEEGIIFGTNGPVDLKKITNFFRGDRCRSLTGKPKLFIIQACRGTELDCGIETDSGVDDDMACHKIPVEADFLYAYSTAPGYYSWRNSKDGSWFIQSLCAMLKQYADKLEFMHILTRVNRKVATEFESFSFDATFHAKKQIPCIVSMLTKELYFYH

[3] = biological target: T1, Sentrin-specific protease 8; assay: SENP8 protease inhibitors, SAR follow-up, biochemical, luminescence, set 2 (AID 588601); type: functional
Caspase-3 [4] = biological target: T2, Caspase-3; assay: SAR Analysis of small molecule inhibitors of Sentrin-specific proteases (SENPs) using a Caspase-3 Selectivity assay. [Related pubchem assays (depositor defined):AID2540, AID2599, AID434973, AID489001]; type: functional
[5] = biological target: T3, Sentrin-specific protease 7 (Homo sapiens, UniProt Q9BQF6); assay: SENP7 protease inhibitors, SAR follow-up, biochemical, luminescence, set 2 (AID 588600); type: functional
T3 sequence (Q9BQF6 whole entry): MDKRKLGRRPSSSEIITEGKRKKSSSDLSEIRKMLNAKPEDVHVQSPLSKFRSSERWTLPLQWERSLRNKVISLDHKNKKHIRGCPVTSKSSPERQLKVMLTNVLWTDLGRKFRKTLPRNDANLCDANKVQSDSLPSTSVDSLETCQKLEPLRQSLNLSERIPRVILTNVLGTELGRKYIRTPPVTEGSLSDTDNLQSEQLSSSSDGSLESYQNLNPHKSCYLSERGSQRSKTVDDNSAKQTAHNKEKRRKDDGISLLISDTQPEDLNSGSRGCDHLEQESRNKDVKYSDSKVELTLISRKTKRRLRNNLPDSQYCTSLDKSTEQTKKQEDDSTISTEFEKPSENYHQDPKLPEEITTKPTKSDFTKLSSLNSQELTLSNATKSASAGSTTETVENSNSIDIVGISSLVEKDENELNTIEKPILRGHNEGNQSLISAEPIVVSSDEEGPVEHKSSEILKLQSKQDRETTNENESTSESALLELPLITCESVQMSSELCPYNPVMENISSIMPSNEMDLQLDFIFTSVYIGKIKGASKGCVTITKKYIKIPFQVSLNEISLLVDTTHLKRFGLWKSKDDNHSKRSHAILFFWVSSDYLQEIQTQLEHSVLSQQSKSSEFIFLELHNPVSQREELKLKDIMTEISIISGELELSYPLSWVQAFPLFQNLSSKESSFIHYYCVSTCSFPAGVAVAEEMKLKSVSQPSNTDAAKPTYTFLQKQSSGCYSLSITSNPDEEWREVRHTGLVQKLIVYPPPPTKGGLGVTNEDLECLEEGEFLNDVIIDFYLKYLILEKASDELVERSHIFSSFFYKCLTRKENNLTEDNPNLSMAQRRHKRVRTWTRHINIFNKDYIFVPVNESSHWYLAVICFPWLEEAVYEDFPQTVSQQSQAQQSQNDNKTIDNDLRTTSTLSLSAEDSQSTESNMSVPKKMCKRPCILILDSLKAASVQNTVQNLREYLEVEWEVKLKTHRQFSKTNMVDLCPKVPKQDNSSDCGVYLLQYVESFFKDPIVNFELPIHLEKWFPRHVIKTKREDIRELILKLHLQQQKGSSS

[6] = biological target: T4, Sentrin-specific protease 6 (Homo sapiens, UniProt Q9GZR1); assay: SAR Analysis of small molecule inhibitors of Sentrin-specific protease 6 (SENP6) using a Luminescent assay. [Related pubchem assays (depositor defined):AID2582, AID2599]; type: functional
T4 sequence (Q9GZR1 whole entry): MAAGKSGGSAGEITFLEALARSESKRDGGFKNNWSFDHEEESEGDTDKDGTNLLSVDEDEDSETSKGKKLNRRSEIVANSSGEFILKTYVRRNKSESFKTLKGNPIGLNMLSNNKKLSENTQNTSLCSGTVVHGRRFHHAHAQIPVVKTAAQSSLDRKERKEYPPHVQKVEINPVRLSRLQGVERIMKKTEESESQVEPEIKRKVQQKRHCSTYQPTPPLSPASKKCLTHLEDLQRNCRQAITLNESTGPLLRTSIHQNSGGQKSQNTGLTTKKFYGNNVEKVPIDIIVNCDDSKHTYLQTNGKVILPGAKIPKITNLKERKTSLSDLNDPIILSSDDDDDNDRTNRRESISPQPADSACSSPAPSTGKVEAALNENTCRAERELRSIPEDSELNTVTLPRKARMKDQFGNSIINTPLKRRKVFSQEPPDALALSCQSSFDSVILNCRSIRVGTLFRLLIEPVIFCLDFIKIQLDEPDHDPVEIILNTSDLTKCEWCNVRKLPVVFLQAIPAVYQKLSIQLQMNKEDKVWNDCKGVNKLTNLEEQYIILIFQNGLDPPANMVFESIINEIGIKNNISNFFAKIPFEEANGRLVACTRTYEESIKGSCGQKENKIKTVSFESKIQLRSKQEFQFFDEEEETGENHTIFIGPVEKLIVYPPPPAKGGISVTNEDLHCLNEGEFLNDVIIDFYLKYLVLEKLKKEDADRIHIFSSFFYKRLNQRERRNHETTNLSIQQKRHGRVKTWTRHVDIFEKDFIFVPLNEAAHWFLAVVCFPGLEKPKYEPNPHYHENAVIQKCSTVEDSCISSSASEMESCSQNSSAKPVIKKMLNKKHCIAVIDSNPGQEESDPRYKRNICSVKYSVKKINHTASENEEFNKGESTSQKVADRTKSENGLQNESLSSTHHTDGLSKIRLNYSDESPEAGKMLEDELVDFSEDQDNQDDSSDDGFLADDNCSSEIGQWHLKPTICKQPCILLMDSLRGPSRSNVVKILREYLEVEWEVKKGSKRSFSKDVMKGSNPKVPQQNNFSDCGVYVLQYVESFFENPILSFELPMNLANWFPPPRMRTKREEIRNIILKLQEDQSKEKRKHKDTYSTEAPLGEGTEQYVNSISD

[7] = biological target: T4, Sentrin-specific protease 6; assay: SENP6 protease inhibitors, SAR follow-up, biochemical, luminescence, set 2 (AID 588598); type: functional
[8] = biological target: T3, Sentrin-specific protease 7; assay: SENP7 protease inhibitors, SAR follow-up, biochemical, luminescence (AID 504497); type: functional
[9] = biological target: Dual specificity protein kinase CLK1 (Homo sapiens, UniProt P49759); assay: CLK1 kinase inhibitors, off-target check, dose response, selectivity assay for Dyrk1A inhibitor project, biochemical, cherry-picked samples (AID 588811)
[10] = biological target: Dual specificity tyrosine-phosphorylation-regulated kinase 1A (Rattus norvegicus, UniProt Q63470); type: biochemical, Homo sapiens
CAAX prenyl protease 2 = CAAX prenyl protease 2 (Homo sapiens, UniProt Q9Y256); assay: human Rce1 protease inhibitors, dose response, biochemical, yeast membranes, quenched-peptide fluorescence, cherry-pick (AID 588849)
[11] = biological target: Disintegrin and metalloproteinase domain-containing protein 17 (Homo sapiens, UniProt P78536); assay: exosite inhibitors of ADAM17, dose response, biochemical (AID 743260)
[12] = ADAM10 protease inhibitors, dose response, selectivity assay for ADAM17 exosite inhibitor project, biochemical, FRET peptide substrate, recombinant human ADAM10 (AID 743259);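 further: ADAM10 enzyme cleaving a FRET peptide substrate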

Sequence of Disintegrin and metalloproteinase domain-containing protein 17 (P78536 whole entry, the tested form may be a part): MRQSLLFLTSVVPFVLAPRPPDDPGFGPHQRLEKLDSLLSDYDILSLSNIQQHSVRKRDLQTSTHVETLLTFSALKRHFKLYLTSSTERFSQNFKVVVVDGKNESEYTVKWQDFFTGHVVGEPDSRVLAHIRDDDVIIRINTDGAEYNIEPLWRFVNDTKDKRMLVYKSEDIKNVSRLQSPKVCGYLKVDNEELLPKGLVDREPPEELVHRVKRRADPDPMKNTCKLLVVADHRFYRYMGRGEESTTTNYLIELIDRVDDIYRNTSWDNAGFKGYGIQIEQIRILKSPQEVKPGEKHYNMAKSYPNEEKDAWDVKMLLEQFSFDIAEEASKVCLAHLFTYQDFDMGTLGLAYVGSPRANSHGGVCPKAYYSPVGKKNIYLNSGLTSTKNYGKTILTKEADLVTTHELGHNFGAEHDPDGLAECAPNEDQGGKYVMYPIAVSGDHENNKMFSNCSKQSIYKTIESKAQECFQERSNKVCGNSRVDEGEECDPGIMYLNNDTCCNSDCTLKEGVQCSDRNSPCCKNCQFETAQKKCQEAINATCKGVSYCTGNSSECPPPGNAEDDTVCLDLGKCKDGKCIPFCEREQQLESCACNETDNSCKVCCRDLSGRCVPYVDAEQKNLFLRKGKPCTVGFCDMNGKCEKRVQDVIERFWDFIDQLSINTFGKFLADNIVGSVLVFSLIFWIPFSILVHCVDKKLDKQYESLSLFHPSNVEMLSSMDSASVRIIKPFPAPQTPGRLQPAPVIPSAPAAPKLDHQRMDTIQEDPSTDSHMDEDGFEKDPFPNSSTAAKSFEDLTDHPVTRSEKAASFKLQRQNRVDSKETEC
Sequence of Dual specificity protein kinase CLK1 (P49759 whole entry): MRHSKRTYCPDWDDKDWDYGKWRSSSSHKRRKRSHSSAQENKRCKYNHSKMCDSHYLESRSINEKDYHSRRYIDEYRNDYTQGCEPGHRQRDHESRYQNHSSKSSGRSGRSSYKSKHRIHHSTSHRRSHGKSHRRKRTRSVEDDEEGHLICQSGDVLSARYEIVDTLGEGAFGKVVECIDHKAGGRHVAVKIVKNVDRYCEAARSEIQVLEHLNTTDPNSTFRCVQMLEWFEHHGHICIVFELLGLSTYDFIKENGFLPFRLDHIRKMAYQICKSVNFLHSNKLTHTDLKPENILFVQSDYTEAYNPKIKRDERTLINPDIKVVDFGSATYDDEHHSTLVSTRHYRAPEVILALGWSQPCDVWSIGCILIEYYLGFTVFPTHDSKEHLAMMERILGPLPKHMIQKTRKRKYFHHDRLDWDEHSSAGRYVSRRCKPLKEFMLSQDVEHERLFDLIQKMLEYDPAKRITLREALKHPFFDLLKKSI
Sequence of CAAX prenyl protease 2 (Q9Y256 whole entry, the tested form may be a part): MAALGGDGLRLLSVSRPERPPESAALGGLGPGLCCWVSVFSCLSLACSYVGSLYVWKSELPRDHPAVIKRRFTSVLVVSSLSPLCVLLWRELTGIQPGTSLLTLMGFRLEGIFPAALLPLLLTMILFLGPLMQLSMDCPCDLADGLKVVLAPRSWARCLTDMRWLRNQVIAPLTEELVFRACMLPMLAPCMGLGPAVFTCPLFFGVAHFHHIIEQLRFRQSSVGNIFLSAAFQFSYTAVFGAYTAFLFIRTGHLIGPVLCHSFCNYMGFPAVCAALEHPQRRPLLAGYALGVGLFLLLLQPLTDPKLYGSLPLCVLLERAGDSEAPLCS

Q: Which IC50 [1] does the source give for `O=C(Nc1nc2ccccc2s1)c1nccs1` here?
A: The IC50 was 2.1 µM (active).

Q: And the IC50 (Caspase-3 [2])?
A: The IC50 was 1.01 µM (active).

Q: And the IC50 [3]?
A: The IC50 was 1.55 µM (active).

Q: What about the IC50 (Caspase-3 [4]) of the same compound?
A: The IC50 was 0.9 µM (active).

Q: What about the IC50 [5] of the same compound?
A: The IC50 was 1.54 µM (active).

Q: What about the IC50 [6] of the same compound?
A: Its IC50 is 2.1 µM (active).

Q: And the IC50 [7]?
A: The IC50 was 1.49 µM (active).

Q: What about the IC50 [8] of the same compound?
A: The IC50 was 1.4 µM (active).

Q: For `CCN(C(=O)c1cc(S(=O)(=O)N(CC)CC)ccc1C)c1nc2ccccc2s1`, which IC50 (Caspase-3 [2]) is on record?
A: Its IC50 is > 99 µM (inactive).

Q: And the IC50 [3]?
A: The IC50 was > 99 µM (inactive).

Q: And the IC50 [5]?
A: The IC50 was > 99 µM (inactive).

Q: What about the IC50 [7] of the same compound?
A: The IC50 was > 99 µM (inactive).

Q: With `COc1cccc(Nc2ncnc3ccccc23)c1` as the compound, how does the AC50 [9] read?
A: Its AC50 is 3.94 µM (active).

Q: What about the AC50 [10] of the same compound?
A: Its AC50 is 4.91 µM (active).

Q: Which results are given for `O=C(Nc1cccc2ccccc12)c1ccc(OC(=S)N2CCOCC2)cc1`?
A: AC50 (CAAX prenyl protease 2): > 100 µM (inactive); IC50 [11]: > 69.5 µM (inactive); IC50 [12]: > 69.5 µM (inactive)
